≈ marks a conversion by molar mass, not a printed value. Read-outs that look alike come from different tables or passages of the source.
What was measured:
293T = assay: Nucleoside uptake assay (3H-Thymidine), IC50 relative to DMSO control; format: cell-based; settings: 293T cells; Table 17
Description: Nucleoside Uptake Assay (uptake). Nuceloside uptake assays were performed with using 3H-Thymidine as described in Guo et al. (2018) Nat. Chem, 11:254-63. Specific cell lines are indicated in each assay and cultured in complete growth media. Activity is scored according to the IC50 values relative to DMSO control. “Low” indicates an IC50 greater than 600 nM, “Medium” indicates an IC50 between 300 nM and 600 nM “High” indicates an IC50 less than 300 nM. “Rel.Uptake” refers to uptake activity characterization relative to a single concentration assay. “Low” indicates a response greater than 0.6 times the activity relative to DMSO, “Medium” indicates a response between 0.6 and 0.3 times the activity relative to DMSO, “High” indicates a response less than 0.3 times the activity relative to DMSO.

[1] = Aqueous solubility in PBS solution; format: physicochemical; settings: aqueous buffer
Description: Compound 1593 is synthesized according to Scheme 42. The aqueous solubility of compound 1593 and its counterpart structure without carboxylic acid substitutent, compound 1594, is shown in Table 18. Without the carboxylic acid substitutent, compound 1594 merely has a solubility of about 0.1 mg/mL in PBS solution.

Sprague Dawley Rats = assay: Rat Renal Ischemia-Reperfusion model; format: in vivo; settings: compound given 30 min prior to right nephrectomy and left renal clamping, 24 hours of reperfusion
Description: Briefly, Sprague Dawley Rats were treated test compound 30 min prior to a right nephrectomy and with underwent clamping of the left renal clamping for 15 mins. After 24 hours of reperfusion, blood was collected to measure biomarkers for kidney damage and the kidney was removed for histology. […] SHAM indicates an animal group with right nephrectomy without ischemic injury. VE indicates vehicle. DPA indicates dipyridamole administered in a dosage of 10 mg/kg. Compound 1593 was administered at a high dosage (12 mg/kg) or a low dosage (4 mg/kg). Compound 1594 was administered at 4 mg/kg.

[2] = Nucleoside uptake assay, single concentration (Rel.Uptake), response relative to DMSO; cell line indicated in each table; format: cell-based; settings: 293 T cells, nucleoside uptake at single concentration
[3] = read-out: solubility in PBS solution

Row | SMILES | IC50 (293T) [nM] | solubility ([1]; PBS, read-out: Solubility) [µg/mL] | solubility [1, 3] [µg/mL] | efficacy in Rat Renal Ischemia-Reperfusion model (Sprague Dawley Rats) | Rel. Uptake, 293 T [2]
1 | COc1ccc(CC[C@H]2OC(=O)[C@@H]3CCCCN3C(=O)C(=O)C(C)(C)COC(=O)/C=C/CCN(C)C(=O)[C@H](CC(C)C)N(C)C(=O)[C@H]3CCCN3C(=O)[C@H](Cc3ccc(OCC(=O)O)cc3)NC(=O)[C@H](c3ccccc3)NC(=O)CCC(=O)Nc3cccc2c3)cc1OC [Compound 1593] | < 300 | 3500 (≈ 2700 µM) | ~3500 (≈ 2700 µM) | efficacious | High (“High” indicates a response less than 0.3 times the activity relative to DMSO)
2 | COc1ccc(CC[C@H]2OC(=O)[C@@H]3CCCCN3C(=O)C(=O)C(C)(C)COC(=O)/C=C/CCN(C)C(=O)[C@H](CC(C)C)N(C)C(=O)[C@H]3CCCN3C(=O)[C@H](Cc3ccccc3)NC(=O)[C@H](c3ccccc3)NC(=O)CCC(=O)Nc3cccc2c3)cc1OC [Compound 1594] |  | > 100 | ~100 (≈ 81.7 µM) | efficacious | Low (“Low” indicates a response greater than 0.6 times the activity relative to DMSO)

Reference: US20210094933A1, “RAPAFUCIN DERIVATIVE COMPOUNDS AND METHODS OF USE THEREOF” (The Johns Hopkins University, priority 2019, published 2021)
